Target: T1, GST-Xa-hAAK1 (Homo sapiens, UniProt Q2M2I8)
T1 construct: GST (N); Factor Xa cleavage site (Xa) (internal); made in house
Test: AAK1 Kinase Assay
Format: biochemical
Settings: bacterially expressed GST-Xa-hAAK1 3.5 nM; ATP 22 μM; fluoresceinated peptide 1.5 μM; 3 hours at room temperature; Caliper LabChip 3000
Procedure: The assays were performed in U-bottom 384-well plates. The final assay volume was 30 μl prepared from 15 μl additions of enzyme and substrates (fluoresceinated peptide (5-FAM)-Aha-[…]-NH2 and ATP) and test compounds in assay buffer (10 mM Tris-HCL pH 7.4, 10 mM MgCl2, 0.01% Tween-20 and 1.0 mM DTT). The reactions were initiated by the combination of bacterially expressed, GST-Xa-hAAK1 with substrates and test compounds. The reactions were incubated at room temperature for 3 hours and terminated by adding 60 μl of 35 mM EDTA buffer to each sample. The reactions were analyzed on the Caliper LabChip 3000 (Caliper, Hopkinton, Mass.) by electrophoretic separation of the fluorescent substrate and phosphorylated product. […] The final concentration of reagents in the assays are ATP, 22 μM; (5-FAM)-Aha-[…]-NH2, 1.5 μM; GST-Xa-hAAK1, 3.5 nM; and DMSO, 1.6%. […] Compounds were dissolved at 10 mM in dimethylsulfoxide (DMSO) and evaluated at eleven concentrations. IC50 values were derived by non-linear regression analysis.

T1 sequence (Q2M2I8 whole entry): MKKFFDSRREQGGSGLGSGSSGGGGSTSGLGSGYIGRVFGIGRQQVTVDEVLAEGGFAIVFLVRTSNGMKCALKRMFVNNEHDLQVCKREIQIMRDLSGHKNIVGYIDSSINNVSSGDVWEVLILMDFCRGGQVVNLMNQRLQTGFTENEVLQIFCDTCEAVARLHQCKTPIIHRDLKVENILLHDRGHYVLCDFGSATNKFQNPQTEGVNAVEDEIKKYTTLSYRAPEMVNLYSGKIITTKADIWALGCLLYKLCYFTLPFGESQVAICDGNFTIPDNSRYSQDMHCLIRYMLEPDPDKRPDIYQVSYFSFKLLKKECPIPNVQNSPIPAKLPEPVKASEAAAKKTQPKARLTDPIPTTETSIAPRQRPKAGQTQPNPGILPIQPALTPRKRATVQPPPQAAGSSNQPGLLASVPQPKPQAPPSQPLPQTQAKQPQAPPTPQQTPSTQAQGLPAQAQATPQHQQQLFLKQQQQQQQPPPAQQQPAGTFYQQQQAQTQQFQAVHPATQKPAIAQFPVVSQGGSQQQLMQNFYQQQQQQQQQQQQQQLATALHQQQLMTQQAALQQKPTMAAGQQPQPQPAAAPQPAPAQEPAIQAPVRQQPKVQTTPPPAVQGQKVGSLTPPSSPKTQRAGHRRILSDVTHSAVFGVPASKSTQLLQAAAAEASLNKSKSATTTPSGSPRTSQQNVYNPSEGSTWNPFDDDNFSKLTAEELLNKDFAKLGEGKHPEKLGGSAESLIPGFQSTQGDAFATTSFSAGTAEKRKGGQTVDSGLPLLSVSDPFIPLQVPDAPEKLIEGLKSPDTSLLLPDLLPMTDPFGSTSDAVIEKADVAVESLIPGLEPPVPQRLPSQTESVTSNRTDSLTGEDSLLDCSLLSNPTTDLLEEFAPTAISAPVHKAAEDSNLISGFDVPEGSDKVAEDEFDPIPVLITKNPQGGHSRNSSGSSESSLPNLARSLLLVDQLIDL

Row | SMILES | IC50
1 | CC(C)C[C@](C)(N)COc1ccc(-c2ccnc3ccnn23)cc1CF [Example 353, (S)-1-(2-(fluoromethyl)-4-(pyrazolo[1,5-a]pyrimidin-7-yl)phenoxy)-2,4-dimethylpentan-2-amine] | 0.2 nM
2 | CC(C)C[C@](C)(N)COc1ccc(-c2cc(NC3CCCOC3)ncn2)cc1C(F)(F)F (stereo partly drawn) [Example 358, 6-(4-(((S)-2-amino-2,4-dimethylpentyl)oxy)-3-(trifluoromethyl)phenyl)-N-(tetrahydro-2H-pyran-3-yl)pyrimidin-4-amine] | 385 nM
3 | CC(C)C[C@](C)(N)COc1ccc(-c2ncnc3[nH]ccc23)cc1Cl [Example 361, (S)-1-(2-chloro-4-(7H-pyrrolo[2,3-d]pyrimidin-4-yl)phenoxy)-2,4-dimethylpentan-2-amine] | 1.7 nM
4 | CC(C)C[C@](C)(N)COc1ccc(-c2ncnc3[nH]ccc23)cc1C#N [Example 362, (S)-2-((2-amino-2,4-dimethylpentyl)oxy)-5-(7H-pyrrolo[2,3-d]pyrimidin-4-yl)benzonitrile] | 1 nM
5 | CC(C)C[C@](C)(N)COc1ccc(-c2ncnc3[nH]ccc23)cc1C(F)(F)F [Example 363, (S)-1-(4-(7H-pyrrolo[2,3-d]pyrimidin-4-yl)-2-(trifluoromethyl)phenoxy)-2,4-dimethylpentan-2-amine] | 0.4 nM
6 | CC(C)C[C@](C)(N)COc1ccc(-c2ncnc3c2ccn3C)cc1C#N [Example 364, (S)-2-((2-amino-2,4-dimethylpentyl)oxy)-5-(7-methyl-7H-pyrrolo[2,3-d]pyrimidin-4-yl)benzonitrile] | 24 nM
7 | CC(C)C[C@](C)(N)COc1ccc(-c2ncnc3c2ccn3C)cc1F [Example 365, (S)-1-(2-fluoro-4-(7-methyl-7H-pyrrolo [2,3-d]pyrimidin-4-yl)phenoxy)-2,4-dimethylpentan-2-amine] | 98 nM
8 | CC(C)C[C@](C)(N)COc1ccc(-c2ncnc3c2ccn3C)cc1C(F)(F)F [Example 366, (S)-2,4-dimethyl-1-(4-(7-methyl-7H-pyrrolo[2,3-d]pyrimidin-4-yl)-2-(trifluoromethyl)phenoxy)pentan-2-amine] | 60 nM
9 | Cc1cc(-c2ccnc(Nc3nccs3)n2)ccc1OC[C@@](C)(N)CC(C)C [Example 368, (S)—N-(4-(4-((2-amino-2,4-dimethylpentyl)oxy)-3-methylphenyl)pyrimidin-2-yl)thiazol-2-amine] | 0.3 nM
10 | Cc1cc(-c2ccnc(NC3CC3)n2)ccc1OC[C@@](C)(N)CC(C)C [Example 369, (S)-4-(4-((2-amino-2,4-dimethylpentyl)oxy)-3-methylphenyl)-N-cyclopropylpyrimidin-2-amine] | 1.7 nM
11 | CC(C)C[C@](C)(N)COc1ccc(-c2ccnc(Nc3nccs3)n2)cc1C(F)(F)F [Example 371, (S)—N-(4-(4-((2-amino-2,4-dimethylpentyl)oxy)-3-(trifluoromethyl)phenyl)pyrimidin-2-yl)thiazol-2-amine] | 0.2 nM
12 | Cc1csc(Nc2nccc(-c3ccc(OC[C@@](C)(N)CC(C)C)c(C(F)(F)F)c3)n2)n1 [Example 376, (S)—N-(4-(4-((2-amino-2,4-dimethylpentyl)oxy)-3-(trifluoromethyl)phenyl)pyrimidin-2-yl)-4-methylthiazol-2-amine] | 0.8 nM
13 | CC(C)C[C@](C)(N)COc1ccc(-c2ccnc(NC3CCCC3)n2)cc1C(F)(F)F [Example 377, (S)-4-(4-((2-amino-2,4-dimethylpentyl)oxy)-3-(trifluoromethyl)phenyl)-N-cyclopentylpyrimidin-2-amine] | 7.4 nM
14 | Cc1csc(Nc2nccc(-c3ccc(OC[C@@](C)(N)CC(C)C)c(C#N)c3)n2)n1 [Example 380, (S)-2-((2-amino-2,4-dimethylpentyl)oxy)-5-(2-((4-methylthiazol-2-yl)amino)pyrimidin-4-yl)benzonitrile] | 1 nM
15 | Cc1csc(Nc2nccc(-c3ccc(OC[C@@](C)(N)CC(C)C)c(C)c3)n2)n1 [Example 381, (S)—N-(4-(4-((2-amino-2,4-dimethylpentyl)oxy)-3-methylphenyl)pyrimidin-2-yl)-4-methylthiazol-2-amine] | 1.5 nM
